Molecules are shown by their SMILES.

As usually defined, the melting point is the temperature of the solid-liquid transition.

`CSc1c(C(N)=S)nn(-c2c(Cl)cc(C(F)(F)F)cc2Cl)c1N` returned a melting point of 161 °C.
In turn, `CC[S+]([O-])c1c(C(N)=S)nn(-c2c(Cl)cc(C(F)(F)F)cc2Br)c1N` (stereo not shown) returned a melting point of 113.5 °C.
In turn, `CC[S+]([O-])c1c(C(N)=S)nn(-c2c(Cl)cc(OC(F)(F)F)cc2Cl)c1N` (stereo not shown) displayed a melting point of 102 °C.
`NC(=S)c1nn(-c2c(Cl)cc(C(F)(F)F)cc2Cl)c(N)c1SC(F)(F)F` had a melting point of 182 °C.
Molecule `C[S+]([O-])c1c(C(N)=S)nn(-c2c(Cl)cc(C(F)(F)F)cc2Cl)c1N` (stereo not shown) came in with a melting point of 192 °C.
Molecule `CS(=O)(=O)c1c(C(N)=S)nn(-c2c(Cl)cc(C(F)(F)F)cc2Cl)c1N` returned a melting point of 231 °C.
Take `C[S+]([O-])c1c(C(N)=S)nn(-c2c(Cl)cc(C(F)(F)F)cc2Br)c1N` (stereo not shown): the melting point amounted to 188.5 °C.
Next, `C[S+]([O-])c1c(C(N)=S)nn(-c2c(Cl)cc(OC(F)(F)F)cc2Cl)c1N` (stereo not shown): 137 °C; `CC[S+]([O-])c1c(C(N)=S)nn(-c2c(Cl)cc(C(F)(F)F)cc2Cl)c1N` (stereo not shown): 167 °C.
Turning to `C[S+]([O-])c1c(C(N)=S)nn(-c2ccc(C(F)(F)F)cc2Cl)c1N` (stereo not shown), the melting point is 153.5 °C.

Values taken from patent publication US20020016468A1 (published 2002).
